Read-outs that look alike come from different tables or passages of the source.
Experiments:
SARS-CoV-2 [1] = assay: microbe, parasite or virus in culture; type: cell-based; conditions: for inhibition at 0.1 µM: concentration 0.10 uM; for inhibition at 0.2 µM: concentration 0.20 uM; for inhibition at 0.39 µM: concentration 0.39 uM; for inhibition at 1.56 µM: concentration 1.56 uM; for inhibition at 3.13 µM: concentration 3.13 uM; for inhibition at 6.25 µM: concentration 6.25 uM; for inhibition at 12.5 µM: concentration 12.5 uM; for inhibition at 25 µM: concentration 25 uM; for inhibition at 50 µM: concentration 50 uM
Vero cell lines = assay: Cell viability of Vero cells in the SARS-CoV-2 inhibition experiment (Example 2)
SARS-CoV-2 [2] = assay: microbe, parasite or virus in culture; type: cell-based; conditions: Severe acute respiratory syndrome coronavirus 2, read-out: SARS-CoV-2 virus 50% inhibitory ability (IC50 value); VERO cells infected at MOI 0.1 for one hour, then drug; culture fluid after 48 hours, qRT-PCR
[3] = Cell viability of VERO cells by WST-1 assay (Example 3); conditions: African green monkey
[4] = Severe acute respiratory syndrome coronavirus 2, Vero, 24 h, Vero cells, 24 h, read-out: SARS-CoV-2 virus inhibitory ability (%, average ± standard deviation)
[5] = Severe acute respiratory syndrome coronavirus 2, Vero cells, 24 h, read-out: SARS-CoV-2 virus inhibitory ability (%, average ± standard deviation)

## CCN(CC)CCCC(C)Nc1ccnc2cc(Cl)ccc12 (centres unmarked) [Chloroquine]
SARS-CoV-2 [1]; [4]
  inhibition at 0.1 µM: -2.83 ± 2.09%
  inhibition at 0.2 µM: -4.26 ± 0.03%
  inhibition at 0.39 µM: -2.86 ± 0.21%
  inhibition at 1.56 µM: 3.52 ± 6.42%
  inhibition at 3.13 µM: 61.1 ± 7.72%
  inhibition at 6.25 µM: 97.7 ± 0.16%
  inhibition at 12.5 µM: 99.31 ± 0.39%
  inhibition at 25 µM: 98.93 ± 0.07%
  inhibition at 50 µM: 99.4 ± 1%
SARS-CoV-2 [1]; Severe acute respiratory syndrome coronavirus 2, Vero, 24 h, read-out: SARS-CoV-2 virus 50% inhibitory ability (IC50 value), Vero cells dosed while being infected, 24 h, compounds
  IC50: 8.78 µM
Vero cell lines; concentration 0.10 uM
  Cell viability (%, average ± standard deviation): 83.10 ± 6.34%
Vero cell lines; concentration 0.20 uM
  Cell viability (%, average ± standard deviation): 87.70 ± 0.37%
Vero cell lines; concentration 0.39 uM
  Cell viability (%, average ± standard deviation): 83.14 ± 3.44%
Vero cell lines; concentration 1.56 uM
  Cell viability (%, average ± standard deviation): 89.11 ± 4.21%
Vero cell lines; concentration 3.13 uM
  Cell viability (%, average ± standard deviation): 97.41 ± 1.82%
Vero cell lines; concentration 6.25 uM
  Cell viability (%, average ± standard deviation): 90.84 ± 3.72%
Vero cell lines; concentration 12.5 uM
  Cell viability (%, average ± standard deviation): 83.63 ± 0.73%
Vero cell lines; concentration 25 uM
  Cell viability (%, average ± standard deviation): 71.29 ± 6.06%
Vero cell lines; concentration 50 uM
  Cell viability (%, average ± standard deviation): 59.69 ± 1.38%

## CCN(CCO)CCCC(C)Nc1ccnc2cc(Cl)ccc12 (centres unmarked) [Hydroxy-chloroquine, reference compound]
SARS-CoV-2 [2]
  IC50: 9.33 µM
[3]
  CC50 at 48 h: 160 µM

## COc1cc2c(OC)c3c(c(-c4ccc5c(c4)OCO5)c2cc1OC)C(=O)OC3 [Justicidin-A, 9-benzo[1,3]dioxol-5-yl-4,6,7-trimethoxy-3H -naphtho[2,3-c]furan-1-one]
SARS-CoV-2 [1]; Severe acute respiratory syndrome coronavirus 2, Vero, 24 h, read-out: SARS-CoV-2 virus 50% inhibitory ability (IC50 value)
  IC50: 0.159 µM
SARS-CoV-2 [1]; [5]
  inhibition at 0.1 µM: 25.7 ± 12.3%
  inhibition at 0.2 µM: 75.3 ± 4.37%
  inhibition at 0.39 µM: 95.2 ± 1.48%
  inhibition at 1.56 µM: 99 ± 0.57%
  inhibition at 3.13 µM: 100 ± 0.36%
  inhibition at 6.25 µM: 99.6 ± 0.16%
  inhibition at 12.5 µM: 98.1 ± 1.47%
  inhibition at 25 µM: 95.3 ± 0.61%
  inhibition at 50 µM: 93.3 ± 1.69%
SARS-CoV-2 [1]; Severe acute respiratory syndrome coronavirus 2, concentration 0.78 uM, Vero cells, 24 h, read-out: SARS-CoV-2 virus inhibitory ability (%, average ± standard deviation)
  inhibition at […]: 99 ± 1.58%
SARS-CoV-2 [1]; Vero cells, comparison at IC50 values with Remdesivir, Lopinavir and Chloroquine
  SARS-CoV-2 inhibitory ability (in words): remarkably more excellent
Vero cell lines; concentration 0.20 uM
  Cell viability (%, average ± standard deviation): 97.6 ± 0.61%
Vero cell lines; concentration 0.39 uM
  Cell viability (%, average ± standard deviation): 101.3 ± 1.55%
Vero cell lines; concentration 1.56 uM
  Cell viability (%, average ± standard deviation): 97.4 ± 0.09%
Vero cell lines; concentration 3.13 uM
  Cell viability (%, average ± standard deviation): 98.4 ± 1.93%
Vero cell lines; concentration 6.25 uM
  Cell viability (%, average ± standard deviation): 96.9 ± 3.33%
Vero cell lines; concentration 12.5 uM
  Cell viability (%, average ± standard deviation): 96.5 ± 0.20%
Vero cell lines; concentration 25 uM
  Cell viability (%, average ± standard deviation): 99.5 ± 1.81%
Vero cell lines; concentration 50 uM
  Cell viability (%, average ± standard deviation): 98.0 ± 3.04%

From patent US20230143345A1, “PHARMACEUTICAL COMPOSITION FOR PREVENTION OR TREATMENT OF DISEASES CAUSED BY SARS-COV-2” (DONG WHA PHARM. CO., LTD., priority 2020, published 2023)
